Data taken from the supplement of paper PMC3493320.
pIC50: −log10 of the molar value. Blank lines part the entries; values can stand above or below the compound they belong to.

Tested on: NCI-H295R
Test: IC50 (antiproliferative, ATP content)
Conditions: 48 h
How it was run: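 Compounds were pin-transferred at 8 final concentrations between 0.6 nM and 46 µM onto adrenocortical carcinoma cells (1500 per well, 1536-well plates) that had been cultured overnight in serum-free DMEM with ITS. Plates then stood 48 h at 37 °C, 5% CO2, and ATP was detected by CellTiter-Glo luminescence. IC50 was derived from logistic fits of normalised signal, and compounds giving no concentration response were noted as above the top dose.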

SMILES: O=C(O)CCC(=O)O.c1ccc(C2(c3ccccc3)CC2C2=NCCN2)cc1 (stereo not given)
- pIC50: < 4.34

SMILES: O[C@H]1[C@@H]([C@H](O)CO)O[C@H]2[C@@H]1O[C@H]([C@@](Cl)(Cl)Cl)O2
- pIC50: < 4.34

SMILES: C=CCN1CC[C@]23c4c5ccc(O)c4O[C@H]2C(=O)CC[C@@]3(O)[C@H]1C5
- pIC50: < 4.34

SMILES: C#C[C@]1(O)CC[C@H]2[C@@H]3CCC4=CC(=O)CCC4=C3C=C[C@@]21CC
- pIC50: < 4.34

SMILES: COc1cc2c(cc1OC)C1CC(=O)C(CC(C)C)CN1CC2 (stereo not given)
- pIC50: < 4.34

SMILES: Cc1cccc(C(C)c2c[nH]cn2)c1C (stereo not given)
- pIC50: < 4.34

SMILES: C1CCc2nnnn2CC1
- pIC50: < 4.34

SMILES: O=[N+]([O-])/N=C1\NCCN1Cc1ccc(Cl)nc1
- pIC50: < 4.34

SMILES: COc1cc(N)c(Cl)cc1C(=O)NC1CN2CCC1CC2.Cl (stereo not given)
- pIC50: < 4.34

SMILES: ClC4=CC3=[C@@](C=C4O)[C@H]2C1=CC=CC=C1CC[C@@H]2N(C)CC3
- pIC50: < 4.34

SMILES: N\1(C(NC(/C(=C/1)C)=O)=O)[C@@H]2O[C@H](CO)[C@H](C2)O
- pIC50: < 4.34

SMILES: NS(=O)(=O)c1cc2c(cc1Cl)NC(C1CC3C=CC1C3)NS2(=O)=O (stereo not given)
- pIC50: < 4.34

SMILES: CN(C)C(Cc1ccccc1)c1ccccc1 (stereo not given)
- pIC50: < 4.34

SMILES: C[C@@H]1C[C@H]2[C@@H]3C[C@H](F)C4=CC(=O)C=C[C@]4(C)[C@@]3(Cl)[C@@H](O)C[C@]2(C)[C@H]1C(=O)COC(=O)C(C)(C)C
- pIC50: < 4.34

SMILES: CN(C)CCOc1ccccc1Cc1ccccc1.O=C(O)CC(O)(CC(=O)O)C(=O)O
- pIC50: < 4.34

SMILES: Cc1cc2cc3c(C)cc(=O)oc3c(C)c2o1
- pIC50: < 4.34

SMILES: CN[C@@H](C)[C@@H]1CC[C@@H](N)[C@@H](O[C@H]2[C@H](O)[C@@H](O[C@H]3OC[C@](C)(O)[C@H](NC)[C@H]3O)[C@H](N)C[C@@H]2N)O1.O=S(=O)(O)O
- pIC50: < 4.34

SMILES: C#CCN(C)[C@H](C)Cc1ccccc1.Cl
- pIC50: < 4.34

SMILES: OC(c1ccccc1)(c1ccccc1)C1CN2CCC1CC2 (stereo not given)
- pIC50: < 4.34

SMILES: C[C@]12CC[C@@H]3c4ccc(O)cc4CC[C@H]3[C@@H]1CC[C@@H]2OP(=O)(O)O
- pIC50: < 4.34

SMILES: Oc1cccc(O)c1
- pIC50: < 4.34

SMILES: CC(CC=O)CCCC(C)(C)O (stereo not given)
- pIC50: < 4.34

SMILES: O=C(O)c1ccc(S(=O)(=O)N(Cl)Cl)cc1
- pIC50: < 4.34

SMILES: Cl[C@]1([C@](C)2C=C3)[C@@H](O)C[C@@]([C@]([C@@](CO)=O)(O)[C@H]4C)(C)[C@](C4)([H])[C@@]([H])1CCC2=CC3=O
- pIC50: < 4.34

SMILES: NCC1(CC(=O)O)CCCCC1
- pIC50: < 4.34

SMILES: CN1c2c(O)nc(N)nc2NCC1CNc1ccc(C(=O)NC(CCC(=O)[O-])C(=O)[O-])cc1.[Na+].[Na+] (stereo not given)
- pIC50: < 4.34

SMILES: CCN(CC)CCNC(=O)c1cc(Cl)c(N)cc1OC
- pIC50: < 4.34

SMILES: Cc1ccc(Cl)c(O)c1
- pIC50: < 4.34

SMILES: O=C3N1/C(=C(\CS[C@@H]1[C@@H]3NC(=O)Cc2ccccc2CN)CSc4nnnn4CC(O)=O)C(O)=O
- pIC50: < 4.34

SMILES: Nc1nc2c(ncn2COCCO)c(=O)[nH]1
- pIC50: < 4.34

SMILES: CCCCC(CC)COC(=O)CC(C(=O)OCC(CC)CCCC)S(=O)(=O)[O-].[Na+] (stereo not given)
- pIC50: < 4.34

SMILES: O=C1N(c2ccccc2)c2ccccc2C1(Cc1ccncc1)Cc1ccncc1
- pIC50: < 4.34

SMILES: Cl.O=C(O)c1cn(-c2ccc(F)cc2)c2cc(N3CCNCC3)c(F)cc2c1=O
- pIC50: < 4.34

SMILES: CC(C)[C@@H]1CC[C@@H](C)C[C@H]1O
- pIC50: < 4.34

SMILES: CCOC(=O)c1cncn1C(C)c1ccccc1 (stereo not given)
- pIC50: < 4.34

SMILES: O=C(O)CN(CC(=O)O)Cc1cc2c(cc1O)Oc1ccc(CN(CC(=O)O)CC(=O)O)c(O)c1C21OC(=O)c2ccccc21 (stereo not given)
- pIC50: < 4.34

SMILES: Clc1ccccc1Cl
- pIC50: < 4.34

SMILES: CC(CCc1ccccc1)NCC(O)c1ccc(O)c(C(N)=O)c1.Cl (stereo not given)
- pIC50: < 4.34

SMILES: CN(C)C=Nc1c(I)cc(I)c(CCC(=O)[O-])c1I.[Na+]
- pIC50: < 4.34

SMILES: C[C@@H]1C[C@H]2[C@@H]3CCC4=CC(=O)C=C[C@]4(C)[C@@]3(F)[C@@H](O)C[C@]2(C)[C@@]1(O)C(=O)COC(=O)c1cccc(S(=O)(=O)[O-])c1.[Na+]
- pIC50: < 4.34

SMILES: COc1ccc2c(c1OC)CN1CCc3cc4c(cc3C1C2)OCO4 (stereo not given)
- pIC50: < 4.34

SMILES: O=C1OC(c2ccc(O)cc2)(c2ccc(O)cc2)c2ccccc21
- pIC50: < 4.34

SMILES: C#C[C@]1(O)CC[C@H]2[C@@H]3CCc4cc(OC)ccc4[C@H]3CC[C@@]21C
- pIC50: < 4.34

SMILES: O=C1c2c(O)cccc2Cc2cccc(O)c21
- pIC50: < 4.34

SMILES: [C@@]2\1(\C(=C/C(/C=C/1)=O)[C@H](C[C@@H]4[C@@H]2[C@H](C[C@@]3([C@](C(COC(=O)C)=O)(O)CC[C@H]34)C)O)C)C
- pIC50: < 4.34

SMILES: C=1(C(\C(C(=O)OC)=C(/NC=1C)C)c3c2c(non2)ccc3)C(OC(C)C)=O (stereo not given)
- pIC50: < 4.34

SMILES: O=C(NC(=O)c1c(F)cccc1F)Nc1cc(Cl)c(OC(F)(F)C(F)C(F)(F)F)cc1Cl (stereo not given)
- pIC50: < 4.34

SMILES: Nc1ccc(C(=O)O)cc1
- pIC50: < 4.34

SMILES: C[C@H](O)[C@H](O)[C@H]1CNc2[nH]c(N)nc(=O)c2N1.Cl.Cl
- pIC50: < 4.34

SMILES: O=C(NCCN1CCOCC1)c1ccc(Cl)cc1
- pIC50: < 4.34

SMILES: Cl.NCCc1cc(O)c(O)cc1O
- pIC50: < 4.34

SMILES: CCCCC/C=C\C/C=C\CCCCCCCC(=O)O
- pIC50: < 4.34

SMILES: Oc1ccc(Cl)c2c1CCC2
- pIC50: < 4.34

SMILES: C[C@]12CC[C@H](OS(=O)(=O)[O][Na])CC1=CC[C@@H]1[C@@H]2CC[C@]2(C)C(=O)CC[C@@H]12.O.O
- pIC50: < 4.34

SMILES: O=[C@](N[C@H]2C[C@@H]2[C@]3=CC=CC=C3)[C@H]1NC(CC1)=O
- pIC50: < 4.34

SMILES: COc1cc(Cc2cnc(N)nc2N)cc(OC)c1OC
- pIC50: < 4.34

SMILES: CCCCNc1ccc(C(=O)OCCN(C)C)cc1.Cl
- pIC50: < 4.34

SMILES: O=C2N1[C@]([C@@]([H])2NC(CC3=CC=CC=C3)=O)([H])SC(C)(C)[C@@H]1[C@@]([O-])=O.[K+]
- pIC50: < 4.34

More lines, now with the values ahead:

- pIC50: < 4.34
SMILES: C=CCSCC1Nc2cc(Cl)c(S(N)(=O)=O)cc2S(=O)(=O)N1 (stereo not given)

- pIC50: < 4.34
SMILES: CC(C)(S)[C@@H](N)C(=O)O

- pIC50: < 4.34
SMILES: CCCCCCCCCCCCCCCC[N+](C)(C)CCN(Cc1ccc(OC)cc1)c1ncccn1.[Br-]

- pIC50: < 4.34
SMILES: c1ccc(-n2cnnn2)cc1

- pIC50: < 4.34
SMILES: C[C@H](CCCC(C)(C)O)[C@H]1CC[C@H]2[C@@H]3CC=C4C[C@@H](O)CC[C@]4(C)[C@H]3CC[C@]12C

- pIC50: < 4.34
SMILES: CC1(C)O[C@@H]2CC3C4C[C@H](F)C5=CC(=O)C=C[C@]5(C)C4[C@@H](O)C[C@]3(C)[C@]2(C(=O)CO)O1 (stereo not given in full)

- pIC50: < 4.34
SMILES: CCN1CC(CCN2CCOCC2)C(c2ccccc2)(c2ccccc2)C1=O.Cl (stereo not given)

- pIC50: < 4.34
SMILES: CC(=O)OC[C@H]2O[C@@H](N1\N=C/C(=O)NC1=O)[C@H](OC(C)=O)[C@@H]2OC(C)=O

- pIC50: < 4.34
SMILES: CCOC(=O)COc1ccc2c(C)c(CCN(CC)CC)c(=O)oc2c1Cl.Cl

- pIC50: < 4.34
SMILES: Cc1nnc(NS(=O)(=O)c2ccc(N)cc2)s1

- pIC50: < 4.34
SMILES: C1CNCCN1.C[C@H](CCC(=O)O)[C@H]1CC[C@H]2[C@@H]3[C@H](O)C[C@@H]4C[C@H](O)CC[C@]4(C)[C@H]3C[C@H](O)[C@]12C

- pIC50: < 4.34
SMILES: O=[C@](OC)[C@@H]3[C@@]2([H])C[C@@](N4C[C@@]([H])2CC[C@@H]3O)([H])C1=C(CC4)C(C=CC=C5)=C5N1

- pIC50: < 4.34
SMILES: O=NN(CCCl)C(=O)NCCCl

- pIC50: < 4.34
SMILES: O[C@@H]1CC[C@@H](/C=C(C)/[C@H]([C@H](C)[C@@H](O)CC4=O)O[C@@]([C@H]2N(C(C([C@]3(O)O[C@H]([C@H](C[C@H](C/C(C)=C/[C@H]4CC=C)C)OC)[C@@H](OC)C[C@H]3C)=O)=O)CCCC2)=O)C[C@H]1OC

- pIC50: < 4.34
SMILES: CCCc1c(OCCCCc2nnn[nH]2)ccc(C(C)=O)c1O

- pIC50: < 4.34
SMILES: CCN1C(=O)NC(c2ccccc2)C1=O (stereo not given)

- pIC50: < 4.34
SMILES: FC(F)(F)COCC(F)(F)F

- pIC50: < 4.34
SMILES: F[C@]2([C@](C)3CC4)[C@@H](O)C[C@]([C@](C5)([H])[C@@]([H])2CCC3=CC4=O)(C)[C@@]1([C@](CCl)=O)[C@@H]5OC(C)(C)O1

- pIC50: < 4.34
SMILES: CC(O)CN(CCN(CC(C)O)CC(C)O)CC(C)O (stereo not given)

- pIC50: < 4.34
SMILES: CCCNC(C)C(=O)Nc1c(C)csc1C(=O)OC.Cl (stereo not given)

- pIC50: < 4.34
SMILES: O=C(O)CN(CCN(CC(=O)O)CC(=O)O)CCN(CC(=O)O)CC(=O)O

- pIC50: < 4.34
SMILES: NC(=O)c1cc[n+](CC2=C(C(=O)[O-])N3C(=O)[C@@H](NC(=O)Cc4cccs4)[C@H]3SC2)cc1

- pIC50: < 4.34
SMILES: CC(=O)OCC(=O)[C@@]1(OC(C)=O)[C@@H](C)C[C@H]2[C@@H]3C[C@H](F)C4=CC(=O)C=C[C@]4(C)[C@@]3(F)[C@@H](O)C[C@@]21C

- pIC50: < 4.34
SMILES: CCC(C)C(N)C(=O)O (stereo not given)

- pIC50: < 4.34
SMILES: CC(=O)Nc1ccc(OC(=O)c2ccccc2O)cc1

- pIC50: < 4.34
SMILES: Nc1c(CC(=O)[O-])cccc1C(=O)c1ccc(Br)cc1.Nc1c(CC(=O)[O-])cccc1C(=O)c1ccc(Br)cc1.O.O.O.[Na+].[Na+]

- pIC50: < 4.34
SMILES: CC(N)C12CC3CC(CC(C3)C1)C2.Cl (stereo not given)

- pIC50: < 4.34
SMILES: Cc1cc(C(=O)NCCc2ccc(S(=O)(=O)NC(=O)NN3CCCCCC3)cc2)no1

- pIC50: < 4.34
SMILES: CCOC(C)OCC

- pIC50: < 4.34
SMILES: CC=CC(=O)N(CC)c1ccccc1C

- pIC50: < 4.34
SMILES: O=C(NNCNNC(=O)c1ccncc1)c1ccncc1

- pIC50: < 4.34
SMILES: O=C(N1C)N[C@](C1=O)([C@@]2=CC=CC=C2)CC

- pIC50: < 4.34
SMILES: O=C1OC(OC(=O)c2cccnc2Nc2cccc(C(F)(F)F)c2)c2ccccc21 (stereo not given)

- pIC50: < 4.34
SMILES: Cc1cc(NS(=O)(=O)c2ccc(N)cc2)nc(C)n1

- pIC50: < 4.34
SMILES: CCCCOC(=O)CC(CC(=O)OCCCC)(OC(C)=O)C(=O)OCCCC

- pIC50: < 4.34
SMILES: COc1ccc(C=CC(=O)OCCC(C)C)cc1

- pIC50: < 4.34
SMILES: O=[C@@](OC)[C@H]([C@H]3OC)[C@@]2([H])C[C@](N4C[C@]([H])2C[C@H]3OC(C=CC6=CC(OC)=C(OC)C(OC)=C6)=O)([H])C1=C(CC4)C(C=C5)=C(C=C5OC)N1
